Biological target: T1, cloned human H3 receptors, stably expressed in SK-N-MC cells (Homo sapiens, UniProt Q9Y5N1)
T1 construct: expressed in transfected cells; host or cells: SK-N-MC cells
Assay: H3 Receptor Binding (Human)
Conditions: average of the results obtained
Protocol: Binding of compounds to the cloned human H3 receptors, stably expressed in SK-N-MC cells, was performed as described by Barbier, A. J. et al. (Br. J. Pharmacol. 2004, 143(5), 649-661). Data for compounds tested in this assay are presented in Table 1 as an average of the results obtained.

T1 sequence (Q9Y5N1 whole entry): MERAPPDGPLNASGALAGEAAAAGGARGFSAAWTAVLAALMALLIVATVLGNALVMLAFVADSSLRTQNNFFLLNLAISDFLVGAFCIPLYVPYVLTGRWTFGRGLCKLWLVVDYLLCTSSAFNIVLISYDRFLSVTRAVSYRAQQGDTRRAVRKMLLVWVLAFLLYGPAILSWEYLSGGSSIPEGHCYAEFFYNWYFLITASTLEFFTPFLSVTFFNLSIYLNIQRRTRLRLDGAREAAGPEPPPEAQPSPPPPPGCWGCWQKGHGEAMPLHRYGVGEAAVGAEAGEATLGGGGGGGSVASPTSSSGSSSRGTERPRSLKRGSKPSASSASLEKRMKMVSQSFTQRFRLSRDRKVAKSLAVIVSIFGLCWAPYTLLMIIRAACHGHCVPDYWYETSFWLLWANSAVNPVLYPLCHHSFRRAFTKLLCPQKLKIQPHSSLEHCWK

Row | SMILES | Ki [nM]
1 | CN(C)C1CCN(Cc2c[nH]c3cc(C(=O)N4CCC(c5ccccc5)CC4)ccc23)CC1 [Example 88, [3-(4-Dimethylamino-piperidin-1-ylmethyl)-1H-indol-6-yl]-(4-phenyl-piperidin-1-yl)-methanone] | 186
2 | CN(C)C1CCN(Cc2c[nH]c3cc(C(=O)N4CCC(CO)CC4)ccc23)CC1 [Example 96, [3-(4-Dimethylamino-piperidin-1-ylmethyl)-1H-indol-6-yl]-(4-hydroxymethyl-piperidin-1-yl)-methanone] | 439
3 | CC(=O)N1CCN(Cc2c[nH]c3cc(C(=O)N4CCN(C(C)C)CC4)ccc23)CC1 [Example 48, 1-{4-[6-(4-Isopropyl-piperazine-1-carbonyl)-1H-indol-3-ylmethyl]-piperazin-1-yl}-ethanone] | 5
4 | O=C(c1ccc2c(CN3CCC(N4CCCCC4)CC3)c[nH]c2c1)N1CCCCCC1 [Example 90, Azepan-1-yl-(3-[1,4′]bipiperidinyl-1′-ylmethyl-1H-indol-6-yl)-methanone] | 21
5 | O=C(c1ccc2c(CN3CCN(C4CCC4)CC3)c[nH]c2c1)N1CCCCCC1 [Example 93, Azepan-1-yl-[3-(4-cyclobutyl-piperazin-1-ylmethyl)-1H-indol-6-yl]-methanone] | 38
6 | O=C(c1ccc2[nH]cc(CN3CCCCC3)c2c1)N1CCN(C2CCC2)CC1 [Example 33, (4-Cyclobutyl-piperazin-1-yl)-(3-piperidin-1-ylmethyl-1H-indol-5-yl)-methanone] | 13
7 | O=C(c1ccc2c(CN3CCOCC3)c[nH]c2c1)N1CCc2nc[nH]c2C1 [Example 13, (3-Morpholin-4-ylmethyl-1H-indol-6-yl)-(3,4,6,7-tetrahydro-imidazo[4,5-d]pyridin-5-yl)-methanone] | 2000
8 | CC(=O)N1CCCN(Cc2c[nH]c3cc(C(=O)N4CCN(C(C)C)CC4)ccc23)CC1 [Example 50, 1-{4-[6-(4-Isopropyl-piperazine-1-carbonyl)-1H-indol-3-ylmethyl]-[1,4]diazepam-1-yl}-ethanone] | 3
9 | CC(C)N1CCN(C(=O)c2cccc3[nH]cc(CN4CCOCC4)c23)CC1 [Example 39, (4-Isopropyl-piperazin-1-yl)-(3-morpholin-4-ylmethyl-1H-indol-4-yl)-methanone] | > 10000
10 | O=C(c1ccc2c(CN3CCOCC3)c[nH]c2c1)N1CCCN(C2CC2)CC1 [Example 8, (4-Cyclopropyl-[1,4]diazepan-1-yl)-(3-morpholin-4-ylmethyl-1H-indol-6-yl)-methanone] | 1
11 | CC(C)N1CCCN(Cc2c[nH]c3cc(C(=O)N4CCCCCC4)ccc23)CC1 [Example 95, Azepan-1-yl-[3-(4-isopropyl-[1,4]diazepan-1-ylmethyl)-1H-indol-6-yl]-methanone] | 42
12 | O=C(c1ccc2c(CN3CCCN(C4CC4)CC3)c[nH]c2c1)N1CCCCC1 [Example 31, [3-(4-Cyclopropyl-[1,4]diazepan-1-ylmethyl)-1H-indol-6-yl]-piperidin-1-yl-methanone] | 214
13 | O=C(c1ccc2c(CN3CCC(N4CCCCC4)CC3)c[nH]c2c1)N1CCSCC1 [Example 67, (3-[1,4′]Bipiperidinyl-1′-ylmethyl-1H-indol-6-yl)-thiomorpholin-4-yl-methanone] | 171
14 | O=C(c1ccc2c(CN3CCN(C4CCCC4)CC3)c[nH]c2c1)N1CCSCC1 [Example 68, [3-(4-Cyclopentyl-piperazin-1-ylmethyl)-1H-indol-6-yl]-thiomorpholin-4-yl-methanone] | 36
15 | CC(C)N1CCN(C(=O)c2ccc3c(CN4CCCOCC4)c[nH]c3c2)CC1 [Example 59, (4-Isopropyl-piperazin-1-yl)-(3-[1,4]-oxazepan-4-ylmethyl-1H-indol-6-yl)-methanone] | 1
16 | CN(C)C1CCN(Cc2c[nH]c3cc(C(=O)N4CCC(c5ccccc5)CC4)ccc23)C1 (stereo not drawn) [Example 87, [3-(3-Dimethylamino-pyrrolidin-1-ylmethyl)-1H-indol-6-yl]-(4-phenyl-piperidin-1-yl)-methanone] | 20
17 | CN(C)C1CCN(Cc2c[nH]c3cc(C(=O)N4CCC(Cc5ccccc5)CC4)ccc23)CC1 [Example 100, (4-Benzyl-piperidin-1-yl)-[3-(4-dimethylamino-piperidin-1-ylmethyl)-1H-indol-6-yl]-methanone] | 233
18 | O=C(c1ccc2c(CN3CCCCC3)c[nH]c2c1)N1CCc2nc[nH]c2C1 [Example 18, (3-Piperidin-1-ylmethyl-1H-indol-6-yl)-(3,4,6,7-tetrahydro-imidazo[4,5-c]pyridin-5-yl)-methanone] | 5010
19 | O=C(c1ccc2scc(CN3CCCCC3)c2c1)N1CCN(C2CCC2)CC1 [Example 103, (4-Cyclobutyl-piperazin-1-yl)-(3-piperidin-1-ylmethyl-benzo[b]thiophen-5-yl)-methanone] | 7

Row | SMILES | Ki [nM]
20 | CC(C)N1CCCN(Cc2c[nH]c3cc(C(=O)N4CCSCC4)ccc23)CC1 [Example 72, [3-(4-Isopropyl-[1,4]diazepan-1-ylmethyl)-1H-indol-6-yl]-thiomorpholin-4-yl-methanone] | 36
21 | CN(C)C1CCN(Cc2c[nH]c3cc(C(=O)N4CCC(CO)CC4)ccc23)C1 (stereo not drawn) [Example 94, [3-(3-Dimethylamino-pyrrolidin-1-ylmethyl)-1H-indol-6-yl]-(4-hydroxymethyl-piperidin-1-yl)-methanone] | 27
22 | CC(C)N1CCN(Cc2c[nH]c3cc(C(=O)N4CCC(CO)CC4)ccc23)CC1 [Example 82, (4-Hydroxymethyl-piperidin-1-yl)-[3-(4-isopropyl-piperazin-1-ylmethyl)-1H-indol-6-yl]-methanone] | 34
23 | O=C(c1ccc2c(CN3CCCCC3)c[nH]c2c1)N1CCC(N2CCCC2=O)CC1 [Example 19, 1-[1-(3-Piperidin-1-ylmethyl-1H-indole-6-carbonyl)-piperidin-4-yl]-pyrrolidin-2-one] | 260
24 | CC(C)N1CCCN(Cc2c[nH]c3cc(C(=O)N4CCC(c5ccccc5)CC4)ccc23)CC1 [Example 97, [3-(4-Isopropyl-[1,4]diazepan-1-ylmethyl)-1H-indol-6-yl]-(4-phenyl-piperidin-1-yl)-methanone] | 59
25 | O=C(c1ccc2c(CN3CCCN(C4CCC4)CC3)c[nH]c2c1)N1CCC(CO)CC1 [Example 83, [3-(4-Cyclobutyl-[1,4]diazepan-1-ylmethyl)-1H-indol-6-yl]-(4-hydroxymethyl-piperidin-1-yl)-methanone] | 27
26 | CC(C)N1CCCN(Cc2c[nH]c3cc(C(=O)N4CCCCC4)ccc23)CC1 [Example 30, [3-(4-Isopropyl-[1,4]diazepan-1-ylmethyl)-1H-indol-6-yl]-piperidin-1-yl-methanone] | 26
27 | O=C(c1ccc2c(CN3CCOCC3)c[nH]c2c1)N1CCCN(C2CCC2)CC1 [Example 9, (4-Cyclobutyl-[1,4]diazepan-1-yl)-(3-morpholin-4-ylmethyl-1H-indol-6-yl)-methanone] | 1
28 | O=C(c1ccc2c(CN3CCCN(C4CCC4)CC3)c[nH]c2c1)N1CCC(Cc2ccccc2)CC1 [Example 108, (4-Benzyl-piperidin-1-yl)-[3-(4-cyclobutyl-[1,4]diazepan-1-ylmethyl)-1H-indol-6-yl]-methanone] | 16
29 | Cn1cc(CN2CCOCC2)c2ccc(C(=O)N3CCN(C4CC4)CC3)cc21 [Example 2, (4-Cyclopropyl-piperazin-1-yl)-(1-methyl-3-morpholin-4-ylmethyl-1H-indol-6-yl)-methanone] | 46
30 | CC(=O)N(C)C1CCN(Cc2c[nH]c3cc(C(=O)N4CCN(C(C)C)CC4)ccc23)C1 (stereo not drawn) [Example 60, N-{1-[6-(4-Isopropyl-piperazine-1-carbonyl)-1H-indol-3-ylmethyl]-pyrrolidin-3-yl}-N-methyl-acetamide] | 1
31 | O=C(c1ccc2c(CN3CCC(N4CCCCC4)CC3)c[nH]c2c1)N1CCC(c2ccccc2)CC1 [Example 85, (3-[1,4′]Bipiperidinyl-1′-ylmethyl-1H-indol-6-yl)-(4-phenyl-piperidin-1-yl)-methanone] | 81
32 | CC(C)N1CCN(C(=O)c2cccc3c(CN4CCCCC4)c[nH]c23)CC1 [Example 22, (4-Isopropyl-piperazin-1-yl)-(3-piperidin-1-ylmethyl-1H-indol-7-yl)-methanone] | 32
33 | CC(C)N1CCN(C(=O)c2ccc3c(CN4CCN(c5ccc(-c6ccccc6)cc5)CC4)c[nH]c3c2)CC1 [Example 52, [3-(4-Biphenyl-4-yl-piperazin-1-ylmethyl)-1H-indol-6-yl]-(4-isopropyl-piperazin-1-yl)-methanone] | 12
34 | O=C(c1ccc2c(CN3CCN(C4CCCC4)CC3)c[nH]c2c1)N1CCOCC1 [Example 74, [3-(4-Cyclopentyl-piperazin-1-ylmethyl)-1H-indol-6-yl]-morpholin-4-yl-methanone] | 53
35 | CC(C)N1CCN(C(=O)c2ccc3c(CN4CCCCC4)c[nH]c3c2)CC1 [Example 24, (4-Isopropyl-piperazin-1-yl)-(3-piperidin-1-ylmethyl-1H-indol-6-yl)-methanone] | 2
36 | O=C(c1cccc2[nH]cc(CN3CCOCC3)c12)N1CCN(C2CCC2)CC1 [Example 41, (4-Cyclobutyl-piperazin-1-yl)-(3-morpholin-4-ylmethyl-1H-indol-4-yl)-methanone] | 5000
37 | CC(C)N1CCN(C(=O)c2ccc3c(CN4CCN(S(C)(=O)=O)CC4)c[nH]c3c2)CC1 [Example 54, (4-Isopropyl-piperazin-1-yl)-[3-(4-methanesulfonyl-piperazin-1-ylmethyl)-1H-indol-6-yl]-methanone] | 12
38 | O=C(c1ccc2c(CN3CCN(C4CCCC4)CC3)c[nH]c2c1)N1CCC(CO)CC1 [Example 80, [3-(4-Cyclopentyl-piperazin-1-ylmethy)l-1H-indol-6-yl]-(4-hydroxymethyl-piperidin-1-yl)-methanone] | 38

Same assay, conditions: stated in text for the intermediate of Example 35, Step A

Row | SMILES | Ki [nM]
39 | CC(C)N1CCN(C(=O)c2ccc3[nH]ccc3c2)CC1 [(1H-Indol-5-yl)-(4-isopropyl-piperazin-1-yl)-methanone] | 97
